Test results published in ChEMBL document CHEMBL6074667, “Discovery and Optimization of First-in-Class Molecular Glue Degraders of the WIZ Transcription Factor for Fetal Hemoglobin Induction to Treat Sickle Cell Disease” (J Med Chem, 2024).

How the values were obtained:
[1] = biological target: T1, Protein cereblon/Eukaryotic peptide chain release factor GTP-binding subunit ERF3A (Homo sapiens, UniProt Q96SW2+P15170); experiment: Molecular glue activity at CRBN/HiBiT-tagged GSPT1 (unknown origin) expressed in human GripTite 293 MSR cells assessed as induction of GSPT1 degradation incubated for 20 hrs by Nano-Glo HiBiT-Lytic reagent based luminescence plate reader analysis; format: cell-based
Target sequence in this assay (Q96SW2 whole entry): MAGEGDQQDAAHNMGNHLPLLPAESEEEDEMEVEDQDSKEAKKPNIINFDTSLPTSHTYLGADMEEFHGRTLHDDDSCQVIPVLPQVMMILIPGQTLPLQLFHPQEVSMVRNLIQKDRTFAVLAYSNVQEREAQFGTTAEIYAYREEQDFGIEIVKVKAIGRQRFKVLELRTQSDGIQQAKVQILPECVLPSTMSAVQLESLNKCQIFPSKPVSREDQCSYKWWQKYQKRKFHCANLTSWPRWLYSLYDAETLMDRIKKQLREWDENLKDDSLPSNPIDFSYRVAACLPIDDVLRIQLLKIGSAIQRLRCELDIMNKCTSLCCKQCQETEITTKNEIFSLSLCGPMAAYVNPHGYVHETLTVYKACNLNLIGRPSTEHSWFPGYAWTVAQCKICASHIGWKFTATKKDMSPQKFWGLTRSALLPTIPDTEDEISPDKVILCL
Target sequence in this assay (P15170 whole entry): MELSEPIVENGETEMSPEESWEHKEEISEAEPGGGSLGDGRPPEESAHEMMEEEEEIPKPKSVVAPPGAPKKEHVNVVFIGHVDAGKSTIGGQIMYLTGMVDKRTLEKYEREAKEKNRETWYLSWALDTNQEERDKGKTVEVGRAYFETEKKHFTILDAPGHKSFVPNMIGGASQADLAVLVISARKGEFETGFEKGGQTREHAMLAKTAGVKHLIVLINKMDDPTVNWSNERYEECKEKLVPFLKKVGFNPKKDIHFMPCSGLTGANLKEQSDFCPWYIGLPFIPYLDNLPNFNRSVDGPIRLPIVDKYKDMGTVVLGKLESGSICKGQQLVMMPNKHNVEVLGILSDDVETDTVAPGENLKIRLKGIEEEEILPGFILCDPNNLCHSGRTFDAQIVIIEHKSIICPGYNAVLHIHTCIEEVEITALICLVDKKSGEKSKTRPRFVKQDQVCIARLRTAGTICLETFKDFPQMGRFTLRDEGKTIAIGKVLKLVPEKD

[2] = biological target: T1, Protein cereblon/Eukaryotic peptide chain release factor GTP-binding subunit ERF3A; experiment: Molecular glue activity at CRBN/HiBiT-tagged GSPT1 (unknown origin) expressed in human GripTite 293 MSR cells assessed as induction of GSPT1 degradation incubated for 20 hrs by Nano-Glo HiBiT-Lytic reagent based luminescence plate reader analysis relative to control; format: cell-based; design: concentration or dose not given beside the values
[3] = biological target: T2, Protein cereblon/Sal-like protein 4 (Homo sapiens, UniProt Q96SW2+Q9UJQ4); experiment: Molecular glue activity at CRBN/HiBiT-tagged SALL4 (unknown origin) expressed in human GripTite 293 MSR cells assessed as induction of SALL4 degradation incubated for 20 hrs by Nano-Glo HiBiT-Lytic reagent based luminescence plate reader analysis relative to control; format: cell-based; design: concentration or dose not given beside the values
Target sequence in this assay (Q96SW2 whole entry, looked up): as the sequence (Q96SW2 whole entry) above
Target sequence in this assay (Q9UJQ4 whole entry, looked up): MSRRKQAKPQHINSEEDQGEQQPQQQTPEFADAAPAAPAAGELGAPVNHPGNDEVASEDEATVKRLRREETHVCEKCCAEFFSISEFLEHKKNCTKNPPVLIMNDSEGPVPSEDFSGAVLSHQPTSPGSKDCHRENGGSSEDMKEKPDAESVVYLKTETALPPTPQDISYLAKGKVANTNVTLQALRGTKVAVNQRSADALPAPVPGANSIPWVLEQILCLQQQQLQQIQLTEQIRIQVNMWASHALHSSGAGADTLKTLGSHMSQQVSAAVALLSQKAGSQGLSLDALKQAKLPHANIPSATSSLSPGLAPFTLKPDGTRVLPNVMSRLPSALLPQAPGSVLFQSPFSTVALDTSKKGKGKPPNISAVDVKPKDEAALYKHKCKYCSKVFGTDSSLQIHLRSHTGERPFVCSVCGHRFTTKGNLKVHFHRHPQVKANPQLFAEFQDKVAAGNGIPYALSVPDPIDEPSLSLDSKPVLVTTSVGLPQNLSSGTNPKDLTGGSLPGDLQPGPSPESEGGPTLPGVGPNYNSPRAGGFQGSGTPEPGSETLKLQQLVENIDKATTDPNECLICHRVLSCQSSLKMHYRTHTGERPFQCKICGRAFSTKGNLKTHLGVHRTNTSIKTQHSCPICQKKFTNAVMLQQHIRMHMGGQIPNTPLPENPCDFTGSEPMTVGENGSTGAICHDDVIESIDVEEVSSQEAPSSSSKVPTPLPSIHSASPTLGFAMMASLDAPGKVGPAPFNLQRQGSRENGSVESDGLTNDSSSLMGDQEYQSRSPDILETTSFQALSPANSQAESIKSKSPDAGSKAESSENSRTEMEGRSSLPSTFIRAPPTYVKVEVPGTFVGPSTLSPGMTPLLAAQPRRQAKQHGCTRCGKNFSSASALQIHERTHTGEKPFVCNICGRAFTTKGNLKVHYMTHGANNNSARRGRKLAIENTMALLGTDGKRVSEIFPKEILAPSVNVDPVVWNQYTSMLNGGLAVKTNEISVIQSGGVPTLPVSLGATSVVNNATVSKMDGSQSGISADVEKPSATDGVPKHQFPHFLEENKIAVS

[4] = biological target: T2, Protein cereblon/Sal-like protein 4; experiment: Molecular glue activity at CRBN/HiBiT-tagged SALL4 (unknown origin) expressed in human GripTite 293 MSR cells assessed as induction of SALL4 degradation incubated for 20 hrs by Nano-Glo HiBiT-Lytic reagent based luminescence plate reader analysis; format: cell-based
Target sequence in this assay (Q96SW2 whole entry): as the sequence (Q96SW2 whole entry) above
Target sequence in this assay (Q9UJQ4 whole entry): as the sequence (Q9UJQ4 whole entry, looked up) above

[5] = biological target: T3, Cereblon/Ikaros (Homo sapiens, UniProt Q96SW2+Q13422); experiment: Molecular glue activity at CRBN/HiBiT-tagged IKZF1 (unknown origin) expressed in human GripTite 293 MSR cells assessed as induction of […] incubated for 20 hrs by Nano-Glo HiBiT-Lytic reagent based luminescence plate reader analysis; format: cell-based
[6] = biological target: T4, Protein cereblon/Protein Wiz (Homo sapiens, UniProt Q96SW2+O95785); experiment: Molecular glue activity at CRBN/HiBiT-tagged WIZ (unknown origin) expressed in HEK293T cells assessed as induction of WIZ degradation incubated for 18 hrs by Nano-Glo HiBiT-Lytic reagent based luminescence plate reader analysis relative to control; format: cell-based; design: concentration or dose not given beside the values
[7] = biological target: T4, Protein cereblon/Protein Wiz; experiment: Molecular glue activity at CRBN/HiBiT-tagged WIZ (unknown origin) expressed in HEK293T cells assessed as induction of WIZ degradation incubated for 18 hrs by Nano-Glo HiBiT-Lytic reagent based luminescence plate reader analysis; format: cell-based
[8] = biological target: T3, Cereblon/Ikaros; experiment: Molecular glue activity at CRBN/HiBiT-tagged IKZF1 (unknown origin) expressed in human GripTite 293 MSR cells assessed as induction of […] incubated for 20 hrs by Nano-Glo HiBiT-Lytic reagent based luminescence plate reader analysis relative to control; format: cell-based; design: concentration or dose not given beside the values
[9] = biological target: T4, Protein cereblon/Protein Wiz; experiment: In vivo molecular glue activity at CRBN/WIZ in immunocompromised naive NBSGW mouse xenografted with human CD34 positive HSPC cells assessed as fold increase in Hbf-positive cells in moCD45 negative hCD45negative CD71positive CD235A positive bone marrow cells at 0.01 to 1 mg/kg, po administered once daily for 21 days by staining based analysis; format: functional, organism-based; conditions: dose 0.01-1 mg/kg, time 21.0 day
[10] = biological target: T4, Protein cereblon/Protein Wiz; experiment: In vivo molecular glue activity at CRBN/WIZ in immunocompromised naive NBSGW mouse xenografted with human CD34 positive HSPC cells assessed as induction of WIZ degradation in peripheral blood human C19-positive B cells by measuring maximal efficacy at 0.01 to 1 mg/kg, po administered once daily for 21 days by staining based analysis relative to control; format: functional, organism-based; conditions: dose 0.01-1 mg/kg, time 21.0 day
[11] = biological target: T4, Protein cereblon/Protein Wiz; experiment: In vivo molecular glue activity at CRBN/WIZ in immunocompromised naive NBSGW mouse xenografted with human CD34 positive HSPC cells assessed as induction of WIZ degradation in peripheral blood human […] B cells administered orally once daily for 21 days by staining based analysis; format: functional, organism-based; conditions: route po, time 21.0 day
[12] = biological target: T4, Protein cereblon/Protein Wiz; experiment: Molecular glue activity at CRBN/WIZ in human CD34-positive derived primary erythroblast cells assessed as induction of WIZ degradation by measuring maximal efficacy measured after 24 hrs by flow cytometric analysis relative to control; format: cell-based
[13] = biological target: T4, Protein cereblon/Protein Wiz; experiment: Molecular glue activity at CRBN/WIZ in human CD34-positive derived primary erythroblast cells assessed as increase in fetal hemoglobin positive cells in CD71+ CD235a+ subpopulation measured after 7 days by flow cytometric analysis relative to control; format: cell-based; conditions: time 7.0 day

T3 sequence (Q96SW2 whole entry): as the sequence (Q96SW2 whole entry) above
T3 sequence (Q13422 whole entry): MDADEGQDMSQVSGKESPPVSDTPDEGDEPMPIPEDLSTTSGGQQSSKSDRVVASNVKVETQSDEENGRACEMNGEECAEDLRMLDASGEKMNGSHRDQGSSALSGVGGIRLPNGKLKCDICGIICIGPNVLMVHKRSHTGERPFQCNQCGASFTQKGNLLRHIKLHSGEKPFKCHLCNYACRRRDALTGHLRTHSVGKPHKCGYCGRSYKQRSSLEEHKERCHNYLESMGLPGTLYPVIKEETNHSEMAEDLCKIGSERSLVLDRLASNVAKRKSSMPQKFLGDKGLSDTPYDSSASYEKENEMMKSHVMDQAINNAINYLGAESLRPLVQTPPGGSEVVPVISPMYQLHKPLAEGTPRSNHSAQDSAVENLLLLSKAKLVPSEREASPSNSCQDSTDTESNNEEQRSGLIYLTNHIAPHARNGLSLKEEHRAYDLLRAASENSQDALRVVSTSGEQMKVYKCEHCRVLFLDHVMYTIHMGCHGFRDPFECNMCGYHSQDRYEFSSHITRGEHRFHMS

SMILES | DC50 [1] [µM] | Activity [2] [%] | Activity [3] [%] | DC50 [4] [µM] | DC50 [5] [µM] | Activity [6] [%] | DC50 [7] [µM] | Activity [8] [%] | fold change (FC) [9] | Emax [10] [%] | Activity [11] | Emax [12] [%] | Activity [13] [%]
CCN1C[C@H](C)C[C@@H](Oc2ccc3c(c2)CN(C2CCC(=O)NC2=O)C3=O)C1 (stereo in doubt; 10) | – | < 10 | 26 | – | – | 87 | – | < 10 | 5 | 60 | Dose-dependent-effect | 84 | 40
CCN1C[C@H](Oc2ccc3c(c2)CN(C2CCC(=O)NC2=O)C3=O)CC[C@H]1C (some centres undefined) | > 50 | < 10 | 27 | > 50 | > 50 | 60 | 0.105 | < 10 | – | – | – | – | –
CCN1CCC2(CC2)[C@@H](Oc2ccc3c(c2)CN(C2CCC(=O)NC2=O)C3=O)C1 (some centres undefined) | > 50 | < 10 | 11 | > 50 | > 50 | 82 | 0.008 | < 10 | – | – | – | – | –

Other lines, results leading:

DC50 [1] [µM] | Activity [2] [%] | Activity [3] [%] | DC50 [4] [µM] | DC50 [5] [µM] | Activity [6] [%] | DC50 [7] [µM] | Activity [8] [%] | fold change (FC) [9] | Emax [10] [%] | Activity [11] | Emax [12] [%] | Activity [13] [%] | SMILES
> 50 | < 10 | 27 | > 50 | > 50 | 12 | > 25 | < 10 | – | – | – | – | – | CCN1CCC[C@H](Oc2ccc3c(c2)CN(C2CCC(=O)NC2=O)C3=O)C1 (some centres undefined)
> 50 | < 10 | 28 | > 50 | > 50 | 77 | 0.026 | < 10 | – | – | – | – | – | CCN1CCC[C@@H](Oc2ccc3c(c2)CN(C2CCC(=O)NC2=O)C3=O)C1 (some centres undefined)
> 50 | < 10 | 32 | > 50 | > 50 | 42 | > 25 | < 10 | – | – | – | – | – | CCN1C[C@@H](C)C[C@@H](Oc2ccc3c(c2)CN(C2CCC(=O)NC2=O)C3=O)C1 (mixture of isomers)
